This note sets out measurements from patent US12643912B2, “Macrocyclic compounds, a process for their preparation and pharmaceutical compositions containing them” (LES LABORATOIRES SERVIER, priority 2020, dated 2026).

pEC50: −log10 of the molar value.

The test system of the first test is Nrf2 (Keap1-NRF2 nuclear translocation). The test is described as follows: U2OS translocation assay (PathHunter U2OS Keap1-NRF2 Nuclear Translocation Cell Line). In kind it is cell-based. The conditions noted are these: Homo sapiens, U2OS, 3 h, read-out: CELLULAR U2OS EC50 (nM), U2OS Keap1-NRF2 nuclear translocation cells, 3 h incubation, luminescence, normalized between 1% DMSO and 10 μM andrographolide. The procedure: EXAMPLE 84: U2OS—TRANSLOCATION ASSAY
U2OS cell have been stably transduced using MMLV-derived retroviral vector, to overexpress Nrf2-Enzyme Donor fusion protein, and Acceptor Enzyme in the nucleus (PathHunter® U2OS Keap1-NRF2 Nuclear Translocation Cell Line, Ref.93-0821C3, DiscoverX).
PathHunter U2OS cells were grown in Minimum Essential Medium (MEM) (Ref.30-2003, ATCC), 10% FBS (Ref.P30-193306, PanBiotech), 500 μg/ml Geneticine, 250 μg/ml hygromycine, 0.25 μg/ml puromycine (10131-027, 10687-010 and Ref.A1113802 respectively, Life Technologies).
The night before experiment, cells were harvested using Tryple Xpress (Ref.126905, Bibco) for 5 min at 37° C., resuspended in Opti-MEM™ (Ref.31985-047, Gibco), 1% FBS (Ref.P30-193306, PanBiotech) and then plated into 384 wells plates (Ref.6007680, Perkin Elmer) at the density of 7 500 cells/well in 20 μl. Cell are stored over night at 37° C., 5% CO2 until used. Compounds in 100% DMSO (0.315 μl/well) were resuspended in 20 μl MEM, 1% FBS, 3.4% DMSO. Compounds and andrographolide (10 μM final concentration; Ref.365645-500MG, Aldrich)) as positive control, were dispensed on cell, 5 μl /well, and then incubated for 3 h at 37° C. and 5% CO2. After incubation, Path hunter reagents were dispensed on cells (12 μl /well, Ref.93-0001, DiscoverX) and incubated for 60 min at room temperature in the dark.
Then, luminescence signal was measured using multimodal reader (Pherastar, BMG Labtech). Data were normalized between 1% DMSO (basal signal) and 10 μM andrographolide (positive signal) and analyzed using Activity Base software.
In the case of `COc1ccc2cc1[C@H](C)N1Cc3cc(ccc3OS1(=O)=O)OCCCCn1nnc3c(C)c(ccc31)[C@@H]2CC(=O)O` [Example 28c, [(2S,8R)-4-Methoxy-2,31-dimethyl-27,27-dioxo-21,26-dioxa-27λ^6-thia-1,14,15,16-tetraazahexacyclo[20.5.3.1^3,70.1^9,130.0^12,160.0^25,29]dotriaconta-3(32),4,6,9(31),10,12,14,22,24,29-decaen-8-yl]acetic acid], the EC50 is above 3160 nM.
In the case of `COc1ccc2cc1[C@H](C)N1Cc3cc(ccc3OS1(=O)=O)OCCCCn1nnc3c(C)c(ccc31)[C@H]2CC(=O)O` [Example 28d, [(2S,8S)-4-methoxy-2,31-dimethyl-27,27-dioxo-21,26-dioxa-27λ^6-thia-1,14,15,16-tetraazahexacyclo[20.5.3.1^3,70.1^9,130.0^12,160.0^25,29]dotriaconta-3(32),4,6,9(31),10,12,14,22,24,29-decaen-8-yl]acetic acid], the EC50 is 879 nM.
Regarding `Cc1ccc2cc1[C@@H](C)N1Cc3cc(cc(C)c3OS1(=O)=O)OCCCCn1nnc3c(C)c(ccc31)[C@@H]2CC(=O)O` [Example 29a, [(2R,8R)-2,4,24,31-Tetramethyl-27,27-dioxo-21,26-dioxa-27λ^6-thia-1,14,15,16-tetraazahexacyclo[20.5.3.1^3,70.1^9,130.0^12,160.0^25,29]dotriaconta-3(32),4,6,9(31),10,12,14,22,24,29-decaen-8-yl]acetic acid], the half-maximal effective concentration (EC50) came out at 440 nM.
`Cc1ccc2cc1[C@@H](C)N1Cc3cc(cc(C)c3OS1(=O)=O)OCCCCn1nnc3c(C)c(ccc31)[C@H]2CC(=O)O` [Example 29b, [(2R,8S)-2,4,24,31-tetramethyl-27,27-dioxo-21,26-dioxa-27λ^6-thia-1,14,15,16-tetraazahexacyclo[20.5.3.1^3,70.1^9,130.0^12,160.0^25,29]dotriaconta-3(32),4,6,9(31),10,12,14,22,24,29-decaen-8-yl]acetic acid]: the concentration giving a half-maximal response (EC50) was 68.4 nM.
On the same count and under the same terms, with `COc1ccc2cc1[C@H](C)N1Cc3cc(ccc3OS1(=O)=O)OCCCCCn1nnc3c(C)c(ccc31)[C@H]2CC(=O)O` [Example 31a, [(2S,8S)-4-methoxy-2,32-dimethyl-28,28-dioxo-22,27-dioxa-28λ^6-thia-1,14,15,16-tetraazahexacyclo[21.5.3.1^3,70.1^9,130.0^12,160.0^26,30]tritriaconta-3(33),4,6,9(32),10,12,14,23,25,30-decaen-8-yl]acetic acid] the figure was 1430 nM; with `COc1ccc2cc1[C@@H](C)N1Cc3cc(ccc3OS1(=O)=O)OCCCCCn1nnc3c(C)c(ccc31)[C@H]2CC(=O)O` [Example 31b, [(2R,8S)-4-methoxy-2,32-dimethyl-28,28-dioxo-22,27-dioxa-28λ^6-thia-1,14,15,16-tetraazahexacyclo[21.5.3.1^3,70.1^9,130.0^12,160.0^26,30]tritriaconta-3(33),4,6,9(32),10,12,14,23,25,30-decaen-8-yl]acetic acid], 27.4 nM; with `COc1ccc2cc1[C@H](C)N1Cc3cc(ccc3OS1(=O)=O)OCCCCCn1nnc3c(C)c(ccc31)[C@@H]2CC(=O)O` [Example 31c, [(2S,8R)-4-methoxy-2,32-dimethyl-28,28-dioxo-22,27-dioxa-28λ^6-thia-1,14,15,16-tetraazahexacyclo[21.5.3.1^3,70.1^9,130.0^12,160.0^26,30]tritriaconta-3(33),4,6,9(32),10,12,14,23,25,30-decaen-8-yl]acetic acid], above 3160 nM.
As to `COc1ccc2cc1[C@@H](C)N1Cc3cc(ccc3OS1(=O)=O)OCCCCCn1nnc3c(C)c(ccc31)[C@@H]2CC(=O)O` [Example 31d, [(2R,8R)-4-methoxy-2,32-dimethyl-28,28-dioxo-22,27-dioxa-28λ^6-thia-1,14,15,16-tetraazahexacyclo[21.5.3.1^3,70.1^9,130.0^12,160.0^26,30]tritriaconta-3(33),4,6,9(32),10,12,14,23,25,30-decaen-8-yl]acetic acid], the EC50 came out at 326 nM.
In the case of `COc1cc2cc(c1Cl)CN1Cc3cc(ccc3OS1(=O)=O)OCCCCn1nnc3c(C)c(ccc31)C2CC(=O)O` (stereo not shown) [Example 38a, [4-Chloro-5-methoxy-31-methyl-27,27-dioxo-21,26-dioxa-27λ^6-thia-1,14,15,16-tetraazahexacyclo[20.5.3.1^3,70.1^9,130.0^12,160.0^25,29]dotriaconta-3(32),4,6,9(31),10,12,14,22,24,29-decaen-8-yl]acetic acid], the concentration for a half-maximal effect (EC50) came to 2080 nM.
The same measure, in the same setting: with `COc1ccc2cc1[C@@H](C)N1Cc3cc(ccc3OS1(=O)=O)OCCOCCn1nnc3c(C)c(ccc31)[C@H]2CC(=O)O` [Example 41a] the figure was 716 nM; with `COc1ccc2cc1[C@@H](C)N1Cc3cc(ccc3OS1(=O)=O)OCCOCCn1nnc3c(C)c(ccc31)[C@@H]2CC(=O)O` [Example 41b], above 3160 nM.

The test is the same for the next values; noted with them: read-out: CELLULAR U2OS EC50; U2OS Keap1-NRF2 nuclear translocation cells, 3 h incubation, luminescence, normalized between 1% DMSO and 10 μM andrographolide.
Turning to `Cc1ccc2cc1CN1Cc3cc(ccc3OS1(=O)=O)OCCOCCn1nnc3c(C)c(ccc31)C2CC(=O)O` (single isomer, unassigned) [Example 78b, [4,32-Dimethyl-28,28-dioxo-19,22,27-trioxa-28λ^6-thia-1,14,15,16-tetraazahexacyclo[21.5.3.1^3,70.1^9,130.0^12,160.0^26,30]tritriaconta-3(33),4,6,9(32),10,12,14,23,25,30-decaen-8-yl]acetic acid], the negative logarithm of the EC50 (pEC50) is 6.06.
Turning to `Cc1ccc2cc1CN1Cc3cc(ccc3OS1(=O)=O)OCCCCn1nnc3c(C)c(ccc31)C2C(C)(C)C(=O)Nc1cncnc1` (single isomer, unassigned) [Example 81a, 2-[4,31-Dimethyl-27,27-dioxido-21,26-dioxa-27-thia-1,14,15,16-tetraazahexacyclo[20.5.3.1^3,70.1^9,130.0^12,160.0^25,29]dotriaconta-3(32),4,6,9(31),10,12,14,22,24,29-decaen-8-yl]-2-methyl-N-(pyrimidin-5-yl)propanamide], the negative-log EC50 (pEC50) is 6.56.
For `Cc1ccc2cc1CN1Cc3cc(ccc3OS1(=O)=O)OCCCCn1nnc3c(C)c(ccc31)C2C(C)(C)C(=O)Nc1cncnc1` (single isomer, unassigned) [Example 81b, 2-[4,31-Dimethyl-27,27-dioxido-21,26-dioxa-27-thia-1,14,15,16-tetraazahexacyclo[20.5.3.1^3,70.1^9,130.0^12,160.0^25,29]dotriaconta-3(32),4,6,9(31),10,12,14,22,24,29-decaen-8-yl]-2-methyl-N-(pyrimidin-5-yl)propanamide], the pEC50 is below 5.50.
The same measure, in the same setting: with `Cc1ccc2cc1CN1Cc3cc(ccc3OS1(=O)=O)OCCCCn1nnc3c(C)c(ccc31)C2C(C)(C)C(=O)Nc1cccnc1` (single isomer, unassigned) [Example 82a, 2-[4,31-Dimethyl-27,27-dioxo-21,26-dioxa-27λ^6-thia-1,14,15,16-tetraazahexacyclo[20.5.3.1^3,70.1^9,130.0^12,160.0^25,29]dotriaconta-3(32),4,6,9(31),10,12,14,22,24,29-decaen-8-yl]-2-methyl-N-(pyridin-3-yl)propanamide] the figure was 6.20; with `Cc1ccc2cc1CN1Cc3cc(ccc3OS1(=O)=O)OCCCCn1nnc3c(C)c(ccc31)C2C(C)(C)C(=O)Nc1cccnc1` (single isomer, unassigned) [Example 82b, 2-[4,31-Dimethyl-27,27-dioxo-21,26-dioxa-27λ^6-thia-1,14,15,16-tetraazahexacyclo[20.5.3.1^3,70.1^9,130.0^12,160.0^25,29]dotriaconta-3(32),4,6,9(31),10,12,14,22,24,29-decaen-8-yl]-2-methyl-N-(pyridin-3-yl)propanamide], below 5.50.
